Source: article PMC2882332, “Species Used for Drug Testing Reveal Different Inhibition Susceptibility for 17beta-Hydroxysteroid Dehydrogenase Type 1” (PLoS ONE, 2010)
Like-named read-outs stand apart in the source and are kept apart here.

How the values were obtained:
human 17β-HSD 7 = biological target: T1, human 17β-HSD 7 (Homo sapiens, UniProt P56937); assay: In vitro enzymatic activity, recombinant human 17β-HSD 7 (estrone reduction); format: biochemical; settings: 2 µM compound, 15 nM 3H-estrone, NADPH, pH 6.6, read-out: Observed % inhibition
T1 construct: made in house; host or cells: E.coli BL21 DE3 Codon Plus RP
T1 sequence (P56937 1-341): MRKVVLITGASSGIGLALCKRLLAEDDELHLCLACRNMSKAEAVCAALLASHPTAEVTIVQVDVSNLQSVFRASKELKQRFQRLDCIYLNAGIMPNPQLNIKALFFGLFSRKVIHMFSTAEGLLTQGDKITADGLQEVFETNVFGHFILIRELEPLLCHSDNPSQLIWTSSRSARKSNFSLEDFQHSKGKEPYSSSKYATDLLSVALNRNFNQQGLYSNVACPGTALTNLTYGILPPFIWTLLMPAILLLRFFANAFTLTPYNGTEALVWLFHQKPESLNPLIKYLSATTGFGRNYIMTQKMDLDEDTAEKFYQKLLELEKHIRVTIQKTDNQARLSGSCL
Text: (§1) Full length cDNAs of several 17β-HSDs type 1 originating from different species were cloned either into the pQE30 vector (human 17β-HSD 1, coding for acc. no. NP_000404) for expression as His-Tag protein or into a modified pGex-2T vector [63] (mouse 17β-HSD 1, acc. no. NP_034605; rat 17β-HSD 1, acc. no. NP_036983; marmoset 17β-HSD 1, acc. no. AAG01115; porcine 17β-HSD 1, acc. no. NP_001121944) for expression as GST-fusion proteins. The marmoset 17β-HSD 1 enzyme sequence was updated by the missing N-terminal part (AF272013) and the new porcine sequence was submitted to GenBank (NP_001121944). Human 17β-HSDs 2, 4, 5 (AKR1C3, the latter kindly provided by Dr. T. Penning) and 7 were all cloned into the modified pGEX-2T vector. For 17β-HSD 4 only the SDR-domain converting the steroids was subcloned. Plasmids were transformed into E.coli BL21 DE3 Codon Plus RP (Stratagene) and enzyme expression was induced by 0.5 mM IPTG. After 4h incubation at 37°C with continuous shaking bacteria were pelleted by centrifugation at 10.000×g. Pellets were stored until use at −20°C.
(§2) The bacteria containing recombinant enzymes were resuspended in PBS and enzymatic assays were performed in 100 mM sodium phosphate buffer at pH 6.6 for the reductive reaction and at pH 7.7 for the oxidative reaction. […] All substrates were purchased from NEN/Perkin Elmer. The cofactors NADPH (Sigma; for reductive reactions) and NAD^+ (Serva, for oxidative reactions) were used at final concentrations of 0.5 mg/ml. […] The incubation at 37°C was stopped with 0.21 M ascorbic acid in methanol∶acetic acid 99∶1 (v∶v) after the time needed to convert approximately 30% of the substrate in a control assay with 1% DMSO, without inhibitor candidates. […] The solvent used was acetonitrile∶water (43∶57, v∶v) at a flow rate of 1 ml/min. Radioactivity was detected by online-scintillation counting (Berthold LB506D) after mixing with ReadyFlowIII (Beckman). Conversion was calculated from integration of substrate and product peaks. […] All assays were run in duplicates of two independent experiments and mean values are reported. The IC50 values were determined by the One Ligand Binding model of SigmaPlot kinetics module.

human 17β-HSD 5 (AKR1C3) = biological target: T2, human 17β-HSD 5 (AKR1C3) (Homo sapiens, UniProt P42330); assay: In vitro enzymatic activity, recombinant human 17β-HSD 5 (androstenedione reduction); format: biochemical; settings: 2 µM compound, 21 nM 3H-androstenedione, NADPH, pH 6.6
T2 construct: made in house; host or cells: E.coli BL21 DE3 Codon Plus RP
T2 sequence (P42330 1-323): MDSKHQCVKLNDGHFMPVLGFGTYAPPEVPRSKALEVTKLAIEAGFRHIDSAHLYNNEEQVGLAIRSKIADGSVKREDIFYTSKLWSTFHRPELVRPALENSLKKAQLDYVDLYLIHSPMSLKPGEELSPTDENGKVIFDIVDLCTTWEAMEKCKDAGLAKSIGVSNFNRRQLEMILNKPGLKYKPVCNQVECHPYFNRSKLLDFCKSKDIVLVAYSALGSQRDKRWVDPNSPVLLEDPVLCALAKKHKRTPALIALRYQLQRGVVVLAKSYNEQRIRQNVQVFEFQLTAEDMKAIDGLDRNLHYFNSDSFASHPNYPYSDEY
Text: as §1, §2

human 17β-HSD 2 = biological target: T3, human 17β-HSD 2 (Homo sapiens, UniProt P37059); assay: In vitro enzymatic activity, recombinant human 17β-HSD 2 (estradiol oxidation); format: biochemical; settings: 2 µM compound, 21 nM 3H-estradiol, NAD+, pH 7.7, read-out: Observed % inhibition
T3 construct: made in house; host or cells: E.coli BL21 DE3 Codon Plus RP
T3 sequence (P37059 1-387): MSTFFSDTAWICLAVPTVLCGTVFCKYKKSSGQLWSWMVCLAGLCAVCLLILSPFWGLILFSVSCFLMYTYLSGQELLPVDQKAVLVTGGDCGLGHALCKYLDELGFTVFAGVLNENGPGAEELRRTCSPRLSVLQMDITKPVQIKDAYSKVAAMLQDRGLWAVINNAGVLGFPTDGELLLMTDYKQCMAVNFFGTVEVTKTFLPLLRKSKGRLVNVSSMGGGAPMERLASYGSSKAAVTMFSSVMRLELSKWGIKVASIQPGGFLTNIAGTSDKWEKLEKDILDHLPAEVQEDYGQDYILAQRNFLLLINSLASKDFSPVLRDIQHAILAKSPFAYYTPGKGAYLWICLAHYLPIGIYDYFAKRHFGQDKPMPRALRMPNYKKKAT
Text: as §1, §2

porcine 17β-HSD 1 = biological target: T4, porcine 17β-HSD 1 (Sus scrofa, UniProt B2X0A4); assay: In vitro enzymatic activity, recombinant porcine 17β-HSD 1; format: biochemical, pig; settings: for IC50: Pig 17β-HSD 1, 0.005 µM to 5 µM inhibitor; for inhibition at 2 µM: read-out: Observed % inhibition
T4 sequence (B2X0A4 1-321): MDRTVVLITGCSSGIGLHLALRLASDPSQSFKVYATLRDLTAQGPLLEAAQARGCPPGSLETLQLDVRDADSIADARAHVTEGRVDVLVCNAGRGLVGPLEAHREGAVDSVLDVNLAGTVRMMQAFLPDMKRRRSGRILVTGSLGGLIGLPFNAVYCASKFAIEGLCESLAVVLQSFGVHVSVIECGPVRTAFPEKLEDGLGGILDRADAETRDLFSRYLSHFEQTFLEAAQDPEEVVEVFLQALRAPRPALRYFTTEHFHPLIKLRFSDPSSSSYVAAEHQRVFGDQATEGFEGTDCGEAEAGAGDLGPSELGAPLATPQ
Text: as §1, §2

[1] = pig 17β-HSD 1, 2 µM compound, 15 nM 3H-estrone

SMILES	inhibition at 2 µM (human 17β-HSD 7) [%]	Observed % inhibition (human 17β-HSD 5 (AKR1C3)) [%]	inhibition at 2 µM (human 17β-HSD 2) [%]	IC50 (porcine 17β-HSD 1) [nM]	inhibition at 2 µM (porcine 17β-HSD 1; [1]) [%]	inhibition at 2 µM (porcine 17β-HSD 1) [%]
C[C@]12CC[C@@H]3c4ccc(O)cc4CC[C@H]3[C@@H]1[C@@H](CNC(=O)c1ccc(F)cc1)CC2=O [Compound 1]	-3.6	21.6	-4.3	–	–	–
C[C@]12CC[C@@H]3c4ccc(O)cc4CC[C@H]3[C@@H]1[C@@H](CCCC(=O)N1CCOCC1)CC2=O [Compound 2]	-7.1	33.9	16.7	457	67	–
Cc1cnc(NC(=O)CC[C@@H]2CC(=O)[C@@]3(C)CC[C@@H]4c5ccc(O)cc5CC[C@H]4[C@H]23)s1 [Compound 3]	-9	29.3	18.6	0.34	105	–
COc1ccc(-c2cn(CCC[C@H]3CC(=O)[C@@]4(C)CC[C@@H]5c6ccc(O)cc6CC[C@H]5[C@H]34)nn2)cc1 [Compound 4]	-5.8	93.5	-0.3	–	–	66.2
C[C@]12CC[C@@H]3c4ccc(O)cc4CC[C@H]3[C@@H]1C[C@H](CC(=O)NCc1cccnc1)C2=O [Compound 5, reference compound]	0	50.6	-3.2	–	95.7	–
